{"source": "patent US20220232869A1", "about": "“Steviol Glycoside Sweeteners with Improved Flavor Profiles” (The Coca-Cola Company, priority 2015, published 2022)", "assay": "Sensory evaluation of 5 Brix and 10 Brix acidified water beverages by 15 panelists", "format": "in vivo", "set-up": "Astringency / Acidity / Sweet Aftertaste / Bitter Aftertaste / Overall Liking / Sweetness / Bitterness: scale not given here", "settings": "panel score", "procedure": "5 Brix and 10 Brix beverages were prepared by combining purified water containing 303 ppm citric acid and a sweetener. The 5 Brix beverages contained one of the following sweeteners: (i) 5% (wt/wt) sugar, (ii) 200 ppm A95 or (iii) 200 ppm of a 70 wt % Reb D/30 wt % Reb M blend. The 10 Brix beverages contained one of the following sweeteners: (i) 10% (wt/wt) sugar, (ii) 900 ppm A95 or (iii) 900 ppm of a 70 wt % Reb D/30wt % Reb M blend.\nThe beverages were served at room temperature in 2 oz clear plastic sample cups. 15 panelists evaluated the beverages for various tastes and flavors. Prior to sample evaluation, all panelists rinsed their palate with warm water. The assessors were instructed to take a sip of each beverage and rate the mouth feel and taste/flavor characteristics. 15 seconds after ingestion panelists were instructed to rate sweetness linger and aftertaste. Between samples evaluation a 1 minute rest period was allowed during which they rinsed their palate with warm water and 0.25% NaCl solution.\nThe various tastes and flavors measured in the evaluation are defined as follows: […]", "key": {"[1]": {"settings": "5 brix target, 5% sugar, 200 ppm A95 or 200 ppm blend"}, "[2]": {"settings": "10 brix target, 10% sugar, 900 ppm A95 or 900 ppm blend"}}}
{"smiles": "OC[C@H]1O[C@@](CO)(O[C@H]2O[C@H](CO)[C@@H](O)[C@H](O)[C@H]2O)[C@@H](O)[C@@H]1O", "note": "[Sugar]", "values": [{"measurement": "Acidity", "setting": "[1]", "value": 0.99}, {"measurement": "Astringency", "setting": "[1]", "value": 0.84}, {"measurement": "Bitter Aftertaste", "setting": "[1]", "value": 0.33}, {"measurement": "Bitterness", "setting": "[1]", "value": 0.75}, {"measurement": "Off-Note (Metallic/Licorice)", "setting": "[1]", "value": 0.52}, {"measurement": "Overall Liking", "setting": "[1]", "value": 4.96}, {"measurement": "Sweet Aftertaste", "setting": "[1]", "value": 0.56}, {"measurement": "Sweetness", "setting": "[1]", "value": 4.91}, {"measurement": "Acidity", "setting": "[2]", "value": 1.08}, {"measurement": "Astringency", "setting": "[2]", "value": 0.92}, {"measurement": "Bitter Aftertaste", "setting": "[2]", "value": 0.37}, {"measurement": "Bitterness", "setting": "[2]", "value": 0.55}, {"measurement": "Off-Note (Metallic/Licorice)", "setting": "[2]", "value": 0.51}, {"measurement": "Overall Liking", "setting": "[2]", "value": 6.34}, {"measurement": "Sweet Aftertaste", "setting": "[2]", "value": 1.08}, {"measurement": "Sweetness", "setting": "[2]", "value": 8.45}]}
